The subject of one assay is NCI-H226. Put plainly: Cancer cell line proliferation assay (CellTiter-Glo), NCI-H226. The class given is cell-based. The settings on record: Homo sapiens, 144 h, Lung (mesothelioma), NF2 HOM DEL/LATS1 HOM DEL, 6 days. On the procedure: (§1) All the cell lines are cultured in the media supplemented with 10-20% fetal bovine serum, in the temperature of 37° C., 5% CO2 and 95% humidity. The indicated cell lines (all sourced from the ATCC cell culture collection) are plated in 96-Well Flat Clear Bottom Black Polystyrene TC-Treated Microplates with the final cell density of 4×10^3 cells/well. Cells are incubated overnight and then compounds, dissolved in DMSO, are added in dose-response. Cells are incubated with compound dilutions for another 6 days. Cell viability is quantitated using CellTiter-Glo reagent (Perkin Elmer) and measured using an EnVision Multi Label Reader.

The test system of the next assay is RL95-2. Put plainly: Cancer cell line proliferation assay (CellTiter-Glo), RL95-2. The class given is cell-based. Particulars: Homo sapiens, 144 h, Endometrial (adeno-squamous), LATS1 HOM DEL, 6 days. The method, then: as §1
Another assay concerns C-33 A. Put plainly: Cancer cell line proliferation assay (CellTiter-Glo), C-33 A. The settings on record: Homo sapiens, 144 h, Cervical (squamous), L914Wfs*10 LATS2, 6 days. The class given is cell-based. The method, then: as §1
Background: In ATP-based viability assays light output follows the ATP content of the culture.

A further assay relates to SCC-9. Put plainly: Cancer cell line proliferation assay (CellTiter-Glo), SCC-9. It is filed as cell-based. Particulars: Homo sapiens, 144 h, Head & neck (squamous), FAT1 HOM DEL, 6 days. On the procedure:
as §1

The test system of another assay is NCI-H226 tumor cells. Put plainly: In vivo efficacy in a subcutaneous human lung cancer xenograft model (NCI-H226 mesothelioma). The settings on record: 100 mg/kg, p.o., BID × 21 days. Also on record: species or system Female BALB/c Nude Mice. On the procedure:
The NCI-H226 tumor cells were maintained in vitro with RPMI-1640 medium supplemented with 10% fetal bovine serum at 37° C. in an atmosphere of 5% CO2 in air. The cells in exponential growth phase were harvested and the cell numbers were quantitated by hemocytometer and cell viability was quantified by Trypan Blue counting before tumor inoculation. Balb/c nude mouse were inoculated with subcutaneously in the right front flank regions with 1×10^7 of NCI-H226 tumor cells in 0.1 mL of PBS mixed with 0.1 ml of Matrigel (1:1) for tumor development. All animals were randomized based on the tumor sizes as well as body weights and randomly allocated to the different study groups (8 mice per group). The randomization started when the mean tumor size at the right rear flank region had reached approximately 172 mm^3. The date of randomization was denoted as Day 0.
Cpd. No. 084 was formulated in Vehicle 1 (PEG400 (40%)+PG (30%)+WFI (30%)) as a 10 mg/ml solution, and dosed orally, twice daily, using 10 μl/g (final dose is 100 mg/kg) for 21 days. Cpd. No. 001 was formulated in Vehicle 2 (PEG400 (65%)+PG (20%)+WFI (15%)) as a 10 mg/ml solution, and dosed orally, twice daily, using 10 μl/g (final dose is 100 mg/kg) for 21 days. After tumor cell inoculation, the animals were checked daily for morbidity and mortality. At the time of routine monitoring, the animals were checked for any effects of tumor growth and treatments on behavior such as mobility, food and water consumption, body weight gain/loss (body weight was measured at least two times per week), and any other abnormalities. Mortality and observed clinical signs were recorded for individual animals. Tumor volumes were measured at least two times weekly in two dimensions using a caliper, and the volume was expressed in mm^3 using the formula: V=(L×W×W)/2, where V is tumor volume, L is tumor length (the longest tumor dimension) and W is tumor width (the longest tumor dimension perpendicular to L).
Tumor growth inhibition (TGI) was used as an indicator of antitumor activities, and was calculated from the relative tumor volumes of the control and treatment groups due to the variance of tumor volumes among groups at Day 0. TGI (%)=(1-T/C)×100%; T/C=MTVt/MTVc, MTVt: mean tumor volume in the treatment groups at a specific measurement day, MTVc: mean tumor volume in the control group at a specific measurement day. Moreover, the difference of TGIs between control and treatment groups was analyzed at a measurement day when all or most of the mice in the control groups were alive. In addition, body weight changes over time in each group were used as an index to evaluate the tolerability of test drugs, and were calculated from the average percentage of body weight changes of each individual mouse relative to their initial body weight at randomization using the following formula: group BW %=mean of ((BWt−BW0)/BW0×100%), BWt: body weight at Day t, BW0: body weight at Day 0.
To compare relative tumor volumes of different groups at a pre-specified day, we first used Bartlett's test to check the assumption of homogeneity of variance across all groups. When the p-value of Bartlett's test is >0.05, we run one-way ANOVA to test overall equality of means across all groups. If the p-value of the one-way ANOVA is <0.05, we further perform post hoc testing by running Tukey's HSD (honest significant difference) tests for all pairwise comparisons, and Dunnett's tests for comparing each treatment group with the vehicle group. When the p-value of Bartlett's test is <0.05, we run Kruskal-Wallis test to test overall equality of medians among all groups. If the p-value of the Kruskal-Wallis test is <0.05, we further perform post hoc testing by running Conover's non-parametric test for all pairwise comparisons or for comparing each treatment group with the vehicle group, both with single-step p-value adjustment. All tests were two-sided unless otherwise specified, and p-values<0.05 were regarded as statistically significant. […]
(In general: A xenograft is tissue or cells of one species grown in another, often human tumour cells in immunodeficient mice.)

For assay [1], the system named is YAP/TAZ-TEAD transcription. Description: Reporter gene assay for measuring the inhibition of YAP/TAZ-TEAD transcription (TEAD-responsive element luciferase reporter in Hek293T cells). The class given is cell-based. The settings on record: Homo sapiens, HEK-293T, 24 h, Hek293T cells transiently transfected with TEAD-responsive element luciferase reporter; 24 hours incubation. Summed up:
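Readout is SteadyLite luciferase luminescence from a TEAD-responsive element reporter transiently transfected into Hek293T cells, exposed to compounds for 24 h at 37 °C/5% CO2. IC50 derived from percent inhibition, scaled between vehicle basal activity (0%) and positive control inhibitor (100%).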
(A reporter such as luciferase makes a cellular process visible.)

For another assay, the system named is KMRC3. Put plainly: Cancer cell line proliferation assay (CellTiter-Glo), KMRC3. It is filed as cell-based. The settings on record: 144 h, Kidney, LATS1 HOM DEL, 6 days. On the procedure: as §1
[2] abbreviates: day 20, against the compound's own vehicle group.

Some results are limits rather than exact numbers.

A word on the GI50: it is the concentration giving 50% growth inhibition. The low end stands for more potent growth inhibition, the high end for less potent growth inhibition. As a reminder, the IC50 is the concentration that inhibits the measured activity by half.

In the case of `C=CC(=O)NC1Cc2ccccc2N(c2ccc(C(F)(F)F)cc2)C1` (stereo not shown) [compound 001, N-(1-(4-(trifluoromethyl)phenyl)-1,2,3,4-tetrahydroquinolin-3-yl)acrylamide], the concentration for 50% growth inhibition (GI50) in the assay on NCI-H226 was 40 nM; in the assay on RL95-2, 50 nM; with C-33 A, 100 nM; in the assay on SCC-9, 50 nM; in the assay with KMRC3, 20 nM. Further, in the assay with NCI-H226 tumor cells, the “anti-tumor activity in the xenograft mesothelioma model” value was “highly statistically significant and strong anti-tumor activity”. Moreover, the “Mean Tumor Volume (mm^3) on day 20” value in the assay on NCI-H226 tumor cells (day 20, 8 mice per group) was 217.26 ± 45.21 (8) mm^3. In addition, the “T/C (%)” value in the assay with NCI-H226 tumor cells (setting [2]) was found to be 49.62%. Besides, the “TGI (%)” value in the assay on NCI-H226 tumor cells (setting [2]) was 50.38%. In assay [1], this compound displayed a concentration for half-maximal inhibition (IC50) of less than 1000 nM.
